Assay [1] concerns the target T1, E. coli LysRS (Escherichia coli, UniProt P0A8N3).
T1 sequence (P0A8N3 2-505): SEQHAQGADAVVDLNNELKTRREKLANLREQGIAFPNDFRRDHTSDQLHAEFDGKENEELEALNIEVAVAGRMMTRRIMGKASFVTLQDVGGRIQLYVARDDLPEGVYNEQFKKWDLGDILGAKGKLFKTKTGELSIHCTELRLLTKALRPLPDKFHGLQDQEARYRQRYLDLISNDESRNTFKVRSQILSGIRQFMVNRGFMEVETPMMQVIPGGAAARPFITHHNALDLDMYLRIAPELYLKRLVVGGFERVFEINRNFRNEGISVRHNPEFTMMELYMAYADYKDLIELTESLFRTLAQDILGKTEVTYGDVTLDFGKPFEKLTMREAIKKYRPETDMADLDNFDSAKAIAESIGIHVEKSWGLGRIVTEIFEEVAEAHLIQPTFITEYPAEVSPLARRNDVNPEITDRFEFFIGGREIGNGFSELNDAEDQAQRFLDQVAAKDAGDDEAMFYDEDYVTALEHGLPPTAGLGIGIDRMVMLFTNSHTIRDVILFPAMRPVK
The assay is described as follows: amino acid activation. The assay is classed as biochemical. To be noted: analog 25 mM; ATP.

In assay [2] the target is T2, GenX (PoxA, YjeA) (Escherichia coli, UniProt P0A8N7).
T2 sequence (P0A8N7 1-325): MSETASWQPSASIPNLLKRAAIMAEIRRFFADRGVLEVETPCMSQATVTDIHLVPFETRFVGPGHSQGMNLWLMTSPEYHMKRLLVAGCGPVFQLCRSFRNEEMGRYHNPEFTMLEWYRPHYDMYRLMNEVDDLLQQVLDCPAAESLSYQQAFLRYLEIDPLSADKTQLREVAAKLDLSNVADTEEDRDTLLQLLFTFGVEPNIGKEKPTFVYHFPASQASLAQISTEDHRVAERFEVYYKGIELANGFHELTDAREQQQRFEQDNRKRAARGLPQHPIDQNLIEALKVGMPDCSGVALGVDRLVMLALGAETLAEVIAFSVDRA
The assay is described as follows: inhibition of lysine activation, ATP-[…]PPi exchange. The assay is classed as biochemical.

The structures appear in SMILES notation. pKi: −log10 of the molar value.

One may read the pKi as the Ki on a negative log10 scale, so that one unit is a factor of ten. Low values mean a large Ki, high ones a small Ki.

`NCCSC[C@H](N)C(=O)O` [compound 1, S-(2-aminoethyl)-L-cysteine]: in assay [1], the amino acid activation result is “E. coli LysRS readily activates S-(2-aminoethyl)-L-cysteine (AEC), ornithine”.

For `NCCCC[C@H](N)C(N)=O` [compound 3, lysinamide], in assay [2], the pKi was 3.55.

In assay [2], `NCCCC[C@H](N)C(=O)NO` [compound 2, L-lysine hydroxamate] showed a pKi of 3.82.

The record behind these values is article PMC2900529 (FEBS letters, 2010).
